Reference: US20050075371A1, “Methods and compositions for the oral administration of prodrugs of proton pump inhibitors” (ALLERGAN, INC., priority 2003, published 2005)

Legend:
Caco-2 cells = assay: Membrane permeability (Papp) across Caco-2 cell monolayer, apical to basolateral; type: in vitro ADME; conditions: Caco-2, apical to basolateral, 10 μM, 37° C.
Protocol: Determination of membrane permeability in all examples described herein was accomplished by the following procedure. This procedure is also used to determine whether a given prodrug falls within the scope of those claims given herein which relate to membrane permeability.
Caco-2 cells were seeded on Costar™ 12 mm diameter, 0.4 μm pore size transwell filters, and were cultured at 37° C., 5% CO2 in a humidified tissue culture chamber.
DMEM was equilibrated as a transport buffer in 37° C. water bath an hour before experiment. The cells were then equilibrated in transport buffer for 1 hr at 37° C.
Dosing solution (10 μM) was prepared by adding a 20 μL aliquot of a 10 mM stock solution of the prodrug to 20 mL of transport buffer.
Transport across Caco-2 cell monolayer was measured at 37° C., in the apical to basolateral direction (n=3).
Transport buffer was removed from both apical and basolateral compartment of filters. Dosing solution (0.2 mL) was added to the apical compartment of the cell layers on transwell filters, and 0.8 ml fresh pre-warmed transport buffer was added to basolateral compartment. Timing was started for transport, and at 5, 20, and 60 min after transport started, sample fluid (400 μL) was collected from the basolateral compartment. Fresh transport buffer (400 μL) was added back to the basolateral compartment, and the fluid was thoroughly mixed.
Transport samples, dosing solution, and standards(100 μL) each were mixed with 100 μl of a 500 ng/ml internal standard (Lansoprazole-D) for LC-MS/MS analysis, and part of each sample (100 μL) was vortexed and transferred into glass LC-MS/MS vials for analysis.
The apparent permeability coefficient (Papp, cm/sec), otherwise known herein as the membrane permeability, is determined from the following relationship: Papp=J/(ACo) where J (pmol/min) is the transport rate, meaning the rate of prodrug movement through the cell layer, A (cm^2) is the filter surface area, and Co (μM) is the initial dosing concentration.
The transport rate J, is calculated as the slope of the linear regression fit for the transport amount over time data using Microsoft Excel® 97 SR-2 (Microsoft Corp. Redmond, Wash.).
Lucifer yellow (LY) was used as a paracellular permeability reference standard to determine integrity of cell layers used in the experiments. LY transport in the apical to basolateral direction was carried out in the same manner as described above. Fluorescence level in basolateral fluid sampled at 5, 20, and 60 min post dose was determined using Fluostar Galaxy (BMG Labtechnologies, Durham, N.C.) at excitation/emission wavelengths of 485/520 nm. A standard curve covering the range from 0.002 to 0.5 mg/mL is constructed to quantify the amount of LY in the transport sample to calculate permeability coefficient (Papp).

[1] = Systemic half-life after oral or intravenous administration in dogs; type: in vivo, dogs (beagle); conditions: for Dog T1/2 Prodrug / Dog T1/2 PPI / half-life: oral solution, unit inferred; for Dog T1/2 Prodrug: half-life of intact prodrug, NC = plasma concentration of prodrug too low to calculate half-life, or undetected; for Dog T1/2 PPI / half-life: systemic half-life of the proton pump inhibitor; for t1/2 (systemic half-life in dogs after oral administration): Table 2D; for half-life: beagle, dog, blood, po, read-out: Dog T1/2 PPI (converted)
Protocol: (§1) Blood concentrations of the compounds omeprazole, lansoprazole, pantoprazole, rabeprazole, and test compounds were quantified using an achiral liquid chromatography tandem mass spectrometry method (LC-MS/MS). Systemic pharmacokinetic parameters were determined for omeprazole or lansoprazole using non-compartmental analysis in Watson® version 6.3, available from InnaPhase Corporation, Philadelphia, Pa.

[2] = Systemic half-life after oral or intravenous administration in rats; type: in vivo, rats (Sprague-Dawley); conditions: rats, oral solution; for Rat T1/2 Prodrug: half-life of intact prodrug, NC = plasma concentration of prodrug too low to calculate half-life, or undetected
Protocol: as §1

[3] = systemic half-life of the proton pump inhibitor, unit inferred

## COc1ccc2c(c1)nc([S+]([O-])Cc1ncc(C)c(OC)c1C)n2S(=O)(=O)c1c(C)cc(OCC(=O)O)cc1C (centres unmarked) [Compound 2]
Caco-2 cells
  Permeability: 0.054 ×10⁻⁶ cm/s
[1]
  Dog T1/2 Prodrug: 6.78 min
  Dog T1/2 PPI: 96.6 min
  t1/2 (systemic half-life in dogs after oral administration): 96 min

## COc1ccc2c(c1)nc([S+]([O-])Cc1ncc(C)c(OC)c1C)n2S(=O)(=O)c1ccc(OCC(C)(C)C(=O)O)cc1 (centres unmarked) [Compound 3]
Caco-2 cells
  Permeability: 0.38 ×10⁻⁶ cm/s
[2]; [3]
  Rat T1/2 PPI: 106 min
[1]
  Dog T1/2 Prodrug: 18.7 min
  Dog T1/2 PPI: 48.8 min
  t1/2 (systemic half-life in dogs after oral administration): 48.6 min

## COc1ccc2c(c1)nc([S+]([O-])Cc1ncc(C)c(OC)c1C)n2S(=O)(=O)c1c(C)cc(OCC(C)(C)C(=O)O)cc1C (centres unmarked) [Compound 4]
Caco-2 cells
  Permeability: 0.52 ×10⁻⁶ cm/s
[2]; unit inferred
  Rat T1/2 Prodrug: 20.5 min
[2]; [3]
  Rat T1/2 PPI: 42.5 min
[1]
  Dog T1/2 Prodrug: 75.6 min
  Dog T1/2 PPI: 50.2 min
  t1/2 (systemic half-life in dogs after oral administration): 50.4 min

## COc1ccc2c(c1)nc([S+]([O-])Cc1ncc(C)c(OC)c1C)n2S(=O)(=O)c1ccc(CC(=O)O)cc1 (centres unmarked) [Compound 5]
Caco-2 cells
  Permeability: 0.17 ×10⁻⁶ cm/s
[2]; [3]
  Rat T1/2 PPI: 102 min
[1]
  Dog T1/2 Prodrug: 16.1 min
  Dog T1/2 PPI: 61.8 min
  t1/2 (systemic half-life in dogs after oral administration): 60 min

## COc1ccc2c(c1)nc([S+]([O-])Cc1ncc(C)c(OC)c1C)n2S(=O)(=O)c1cccc(C(=O)O)c1 (centres unmarked) [Compound 6]
Caco-2 cells
  Permeability: 0.067 ×10⁻⁶ cm/s
[2]; [3]
  Rat T1/2 PPI: 116 min
[1]
  Dog T1/2 Prodrug: 18.2 min
  Dog T1/2 PPI: 115 min
  t1/2 (systemic half-life in dogs after oral administration): 114 min

## Cc1c(OCC(F)(F)F)ccnc1C[S+]([O-])c1nc2ccccc2n1S(=O)(=O)c1cccc(C(=O)O)c1 (centres unmarked) [Compound 7]
Caco-2 cells
  Permeability: 0.16 ×10⁻⁶ cm/s
[2]; [3]
  Rat T1/2 PPI: 116 min
[1]
  Dog T1/2 Prodrug: 12.4 min
  Dog T1/2 PPI: 53.6 min
  t1/2 (systemic half-life in dogs after oral administration): 53.4 min

## COc1ccc(S(=O)(=O)n2c([S+]([O-])Cc3nccc(OCC(F)(F)F)c3C)nc3ccccc32)cc1C(=O)O (centres unmarked) [Compound 8]
Caco-2 cells
  Permeability: 0.23 ×10⁻⁶ cm/s
[2]; [3]
  Rat T1/2 PPI: 108 min
[1]
  Dog T1/2 PPI: 64.8 min
  t1/2 (systemic half-life in dogs after oral administration): 66 min

## Cc1c(OCC(F)(F)F)ccnc1C[S+]([O-])c1nc2ccccc2n1S(=O)(=O)c1ccc(CC(=O)O)cc1 (centres unmarked) [Compound 9]
Caco-2 cells
  Permeability: 0.34 ×10⁻⁶ cm/s
[2]; [3]
  Rat T1/2 PPI: 20.5 min
[1]
  Dog T1/2 PPI: 53.6 min
  t1/2 (systemic half-life in dogs after oral administration): 53.4 min

## Cc1c(OCC(F)(F)F)ccnc1C[S+]([O-])c1nc2ccccc2n1S(=O)(=O)c1ccc(OCC(=O)O)cc1 (centres unmarked) [Compound 10]
[1]
  Dog T1/2 PPI: 59.3 min

## Cc1c(OCC(F)(F)F)ccnc1C[S+]([O-])c1nc2ccccc2n1S(=O)(=O)c1ccc(OCC(C)(C)C(=O)O)cc1 (centres unmarked) [Compound 11]
[2]; [3]
  Rat T1/2 PPI: 56 min
[1]
  Dog T1/2 PPI: 52.4 min

## Cc1c(OCC(F)(F)F)ccnc1C[S+]([O-])c1nc2ccccc2n1S(=O)(=O)c1ccc(CC(=O)O)c(CC(=O)O)c1 (centres unmarked) [Compound 12]
[1]
  Dog T1/2 PPI: 55.9 min

## Cc1ccc(C(=O)O)cc1S(=O)(=O)n1c([S+]([O-])Cc2nccc(OCC(F)(F)F)c2C)nc2ccccc21 (centres unmarked) [Compound 13]
[2]; [3]
  Rat T1/2 PPI: 141 min
[1]
  Dog T1/2 Prodrug: 7.32 min
  Dog T1/2 PPI: 106 min

## COc1ccc(C(=O)O)cc1S(=O)(=O)n1c([S+]([O-])Cc2nccc(OCC(F)(F)F)c2C)nc2ccccc21 (centres unmarked) [Compound 14]
[2]; [3]
  Rat T1/2 PPI: 32.2 min
[1]
  Dog T1/2 Prodrug: 7.08 min
  Dog T1/2 PPI: 83.4 min

## Cc1c(OCC(F)(F)F)ccnc1C[S+]([O-])c1nc2ccccc2n1S(=O)(=O)c1ccc(C(=O)O)c(OCC(=O)O)c1 (centres unmarked) [Compound 16]
[2]; [3]
  Rat T1/2 PPI: 112 min
[1]
  Dog T1/2 PPI: 60 min

## Cc1cc(OCC(=O)O)cc(C(C)C)c1S(=O)(=O)n1c([S+]([O-])Cc2nccc(OCC(F)(F)F)c2C)nc2ccccc21 (centres unmarked) [Compound 17]
[1]
  Dog T1/2 Prodrug: 89.4 min
  Dog T1/2 PPI: 67.8 min

## Cc1c(OCC(F)(F)F)ccnc1C[S+]([O-])c1nc2ccccc2n1S(=O)(=O)c1ccc(C(=O)O)cc1 (centres unmarked) [Compound 18]
[1]
  Dog T1/2 Prodrug: 5.39 min
  Dog T1/2 PPI: 54.5 min

## Cc1ccc(S(=O)(=O)n2c([S+]([O-])Cc3nccc(OCC(F)(F)F)c3C)nc3ccccc32)cc1CCC(=O)O (centres unmarked) [Compound 19]
[1]
  Dog T1/2 Prodrug: 110 min
  Dog T1/2 PPI: 29 min

## COC(=O)COc1ccc(S(=O)(=O)n2c([S+]([O-])Cc3ncc(C)c(OC)c3C)nc3cc(OC)ccc32)cc1 (centres unmarked) [Compound 20]
[1]
  Dog T1/2 PPI: 162 min

## COc1ccc2c(c1)nc([S+]([O-])Cc1ncc(C)c(OC)c1C)n2S(=O)(=O)c1ccc(C(=O)O)c(C(=O)O)c1 (centres unmarked) [Compound 22]
[1]
  Dog T1/2 PPI: 233 min

## COc1ccc2c(c1)nc([S+]([O-])Cc1ncc(C)c(OC)c1C)n2S(=O)(=O)c1ccc(OCC(=O)O)c(C(=O)O)c1 (centres unmarked) [Compound 23]
[2]; [3]
  Rat T1/2 PPI: 163 min
[1]
  Dog T1/2 PPI: 73.2 min

## COc1ccc2c(c1)nc([S+]([O-])Cc1ncc(C)c(OC)c1C)n2S(=O)(=O)c1ccc(OCC(=O)O)c(OCC(=O)O)c1 (centres unmarked) [Compound 24]
[2]; [3]
  Rat T1/2 PPI: 23 min
[1]
  Dog T1/2 PPI: 82.2 min

## COc1ccc2c(c1)nc([S+]([O-])Cc1ncc(C)c(OC)c1C)n2S(=O)(=O)c1cc(C(=O)O)ccc1C (centres unmarked) [Compound 27]
[2]; [3]
  Rat T1/2 PPI: 130 min
[1]
  Dog T1/2 Prodrug: 7.02 min
  Dog T1/2 PPI: 66 min

## COc1ccnc(C[S+]([O-])c2nc3cc(OC(F)F)ccc3n2S(=O)(=O)c2ccc(OCC(=O)O)cc2)c1OC (centres unmarked) [Compound 28]
[2]; [3]
  Rat T1/2 PPI: 87 min
[1]
  Dog T1/2 PPI: 157 min

## COc1ccnc(C[S+]([O-])c2nc3cc(OC(F)F)ccc3n2S(=O)(=O)c2cc(C(=O)O)ccc2C)c1OC (centres unmarked) [Compound 29]
[2]; [3]
  Rat T1/2 PPI: 60.6 min
[1]
  Dog T1/2 PPI: 57.5 min

## COCCCOc1ccnc(C[S+]([O-])c2nc3ccccc3n2S(=O)(=O)c2cccc(C(=O)O)c2)c1C (centres unmarked) [Compound 30]
[1]
  Dog T1/2 Prodrug: 67.2 min
  Dog T1/2 PPI: 29.5 min

## COCCCOc1ccnc(C[S+]([O-])c2nc3ccccc3n2S(=O)(=O)c2cc(C(=O)O)ccc2C)c1C (centres unmarked) [Compound 31]
[1]
  Dog T1/2 Prodrug: 50.6 min
  Dog T1/2 PPI: 51.3 min

## COCCCOc1ccnc(C[S+]([O-])c2nc3ccccc3n2S(=O)(=O)c2c(C)cc(OCC(=O)O)cc2C)c1C (centres unmarked) [Compound 32]
[1]
  Dog T1/2 Prodrug: 31.6 min
  Dog T1/2 PPI: 91.2 min

## COCCCOc1ccnc(C[S+]([O-])c2nc3ccccc3n2S(=O)(=O)c2ccc(C(=O)O)cc2)c1C (centres unmarked) [Compound 33]
[1]
  Dog T1/2 Prodrug: 44.8 min
  Dog T1/2 PPI: 53.6 min

## Cc1cc(OCC(=O)O)cc(C)c1S(=O)(=O)n1c([S+]([O-])Cc2nccc(OCC(F)(F)F)c2C)nc2ccccc21 (centres unmarked) [Compound 34]
[2]; [3]
  Rat T1/2 PPI: 66.6 min

## Cc1c(OCC(F)(F)F)ccnc1C[S+]([O-])c1nc2ccccc2n1S(=O)(=O)c1ccc(OCC(=O)O)c(OCC(=O)O)c1 (centres unmarked) [Compound 35]
[2]; [3]
  Rat T1/2 PPI: 110 min

## Cc1c(OCC(F)(F)F)ccnc1C[S+]([O-])c1nc2ccccc2n1S(=O)(=O)c1ccc(C(=O)O)cc1 (centres unmarked) [Compound 36]
[2]; [3]
  Rat T1/2 PPI: 23.3 min

## Cc1cc(C(=O)O)ccc1S(=O)(=O)n1c([S+]([O-])Cc2nccc(OCC(F)(F)F)c2C)nc2ccccc21 (centres unmarked) [Compound 37]
[2]; [3]
  Rat T1/2 PPI: 131 min

## COc1ccc(S(=O)(=O)n2c([S+]([O-])Cc3nccc(OCC(F)(F)F)c3C)nc3ccccc32)cc1CCC(=O)O (centres unmarked) [Compound 38]
[2]; unit not given
  Rat T1/2 Prodrug: 1.04 (0.35)
[2]; [3]
  Rat T1/2 PPI: 85.8 min

## COc1ccnc(C[S+]([O-])c2nc3ccc(OC(F)F)cc3[nH]2)c1OC (centres unmarked) [Pantoprazole, reference compound]
[2]; Sprague-Dawley, rat, blood, systemic half-life of the proton pump inhibitor, unit inferred, read-out: Rat T1/2 PPI (converted)
  half-life: 41.8 min
[1]
  half-life: 44.6 min

## COCCCOc1ccnc(C[S+]([O-])c2nc3ccccc3[nH]2)c1C (centres unmarked) [Rabeprazole, reference compound]
[1]
  half-life: 22.1 min
